Source: patent publication US12156880B2, “Heterocyclic RIP1 kinase inhibitors” (Rigel Pharmaceuticals, Inc., priority 2021, dated 2024)

Columns and labels:
[1] = system: U937 cells; test: U937 cell necroptosis assay (TNFa + zVAD, CellTiter-Glo recovery); format: cell-based; settings: Homo sapiens, U-937, 18 h, TNFa 2 ng/mL + zVAD-fmk, read-out: U937 Zvad TNF CTG Recovery, U937, TNFa + zVAD (IC50)
Outline: (§1)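 Human U937 (50K/well, 60 uM zVAD-fmk medium, plated same day) or murine L929 (10K/well, plated 18 h, then 40 uM zVAD-fmk medium) were grown in RPMI with 10% FBS. Both were pretreated with compound for 1 h at 37 °C before TNFa at 2 ng/mL final. Viability was read by CellTiter-Glo luminescence after 18 h.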

[2] = system: L929 cells; test: L929 cell necroptosis assay (TNFa + zVAD, CellTiter-Glo recovery); format: cell-based, murine; settings: Mus musculus, L929, 18 h, TNFa 2 ng/mL + zVAD-fmk, read-out: L929-CTG-recovery, L929, TNFa + zVAD (IC50)
Outline: as §1

[3] = Brain penetration: free brain/plasma ratio in in vivo pharmacokinetic studies; settings: brain and plasma (unbound); in vivo pharmacokinetic studies in rodents; read-out: free brain/plasma ratio (Bu/Pu)
Protocol: Female C57BL/6 mice are randomly grouped and weighed on Day −1. On the day of the study (Day 0), mice are administered vehicle or test article by oral gavage. Fifteen minutes after oral administration of test agents, each mouse is administered an intraperitoneal (IP) injection of solution containing recombinant human tumor necrosis factor alpha (TNF-a, 25.0 μg) and zVAD-FMK (200 μg). Body temperature is measured at 0 hours (before IP injections) and every hour via rectal probe temperature measuring device. Three (3) hours after IP injections of TNF-a and zVAD/FMK, mice are euthanized by CO2 asphyxiation and blood is collected via cardiac puncture. Serum and plasma are harvested for determination of cytokine and compound levels, respectively. Separate groups of mice (satellite mice) are included for the determination of compound levels in plasma at the time of administration of TNFa/zVAD-FMK. […] Brain penetration may be assessed by evaluating free brain/plasma ratio (Bu/Pu) as measured in vivo pharmacokinetic studies in rodents. […] In this method, the passive membrane permeability (Papp) and the P-gp (P-glycoprotein) substrate efflux potential are determined using a MDCKII-MDR1 cell line as an in vitro model of the effective permeability of a compound through the BBB.

[4] = biological target: T1, RIPK1 (Homo sapiens, UniProt Q13546); test: RIPK1 ADP-Glo biochemical kinase assay; settings: read-out: RIPK1 ADP-Glo Kinase (IC50)
T1 sequence (Q13546 1-671): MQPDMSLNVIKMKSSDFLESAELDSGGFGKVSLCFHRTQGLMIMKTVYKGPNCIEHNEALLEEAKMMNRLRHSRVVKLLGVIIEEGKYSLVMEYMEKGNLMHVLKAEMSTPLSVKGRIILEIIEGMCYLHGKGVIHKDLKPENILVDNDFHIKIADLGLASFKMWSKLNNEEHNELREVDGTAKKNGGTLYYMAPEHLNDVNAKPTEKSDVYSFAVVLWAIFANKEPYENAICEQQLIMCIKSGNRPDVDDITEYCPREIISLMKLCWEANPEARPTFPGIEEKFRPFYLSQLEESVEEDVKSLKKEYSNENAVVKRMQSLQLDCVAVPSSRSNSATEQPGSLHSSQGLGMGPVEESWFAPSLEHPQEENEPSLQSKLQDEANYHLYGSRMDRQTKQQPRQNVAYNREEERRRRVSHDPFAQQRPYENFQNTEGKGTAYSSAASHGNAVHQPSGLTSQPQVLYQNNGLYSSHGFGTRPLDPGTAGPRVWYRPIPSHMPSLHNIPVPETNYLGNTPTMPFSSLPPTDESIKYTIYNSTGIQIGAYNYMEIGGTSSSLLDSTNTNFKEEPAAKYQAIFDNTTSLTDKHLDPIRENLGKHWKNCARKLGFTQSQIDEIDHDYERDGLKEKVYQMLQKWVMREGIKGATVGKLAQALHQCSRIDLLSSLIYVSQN
Outline: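 RIPK1 at 31 ng/well in Tris pH 7.4 buffer with MgCl2, BSA, DTT and MnCl2, reacted with compounds (duplicate) for 30 min at 30 °C. ADP formed detected by ADP-Glo: 40 min stop/depletion, then 30 min detection reagent at room temperature; luminescence read.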

| Compound | Kp,uu (unbound brain/plasma ratio) [3] | IC50 [4] | IC50 [1] | IC50 [2] |
| --- | --- | --- | --- | --- |
| Cc1cccc(Cc2cnn(C(=O)N[C@H]3CCc4ccc(C#CC5(O)COC5)cc4N(C)C3=O)c2)n1 [I-120, (S)—N-(8-((3-Hydroxyoxetan-3-yl)ethynyl)-1-methyl-2-oxo-2,3,4,5-tetrahydro-1H-benzo[b]azepin-3-yl)-4-((6-methylpyridin-2-yl)methyl)-1H-pyrazole-1-carboxamide] | 11 | 17.2 nM | 9.5 nM | 233 nM |
| CN1C(=O)[C@@H](NC(=O)n2cc(Cc3cccnc3F)cn2)COc2ccc(Br)cc21 [I-42, (S)—N-(7-Bromo-5-methyl-4-oxo-2,3,4,5-tetrahydrobenzo[b][1,4]oxazepin-3-yl)-4-((2-fluoropyridin-3-yl)methyl)-1H-pyrazole-1-carboxamide] | – | 18.2 nM | 58.6 nM | 28400 nM |
| CN1C(=O)[C@@H](NC(=O)c2cc(Cc3cccnc3F)ccn2)COc2ccc(C#CC(C)(C)O)cc21 [I-27, (S)-4-((2-fluoropyridin-3-yl)methyl)-N-(7-(3-hydroxy-3-methylbut-1-yn-1-yl)-5-methyl-4-oxo-2,3,4,5-tetrahydrobenzo[b][1,4]oxazepin-3-yl)picolinamide] | – | 19.3 nM | 9.7 nM | 622 nM |
| CN1C(=O)[C@@H](NC(=O)c2cc(Cc3csc(C(F)(F)F)n3)ccn2)COc2ccc(C#CC3(O)COC3)cc21 [I-124, (S)—N-(7-((3-hydroxyoxetan-3-yl)ethynyl)-5-methyl-4-oxo-2,3,4,5-tetrahydrobenzo[b][1,4]oxazepin-3-yl)-4-((2-(trifluoromethyl)thiazol-4-yl)methyl)picolinamide] | – | 30.4 nM | 113 nM | 1590 nM |
| CN1C(=O)[C@@H](NC(=O)n2cc(Cc3cccc(F)n3)cn2)CCc2ccc(C#CC(C)(C)CO)cc21 [I-115, (S)-4-((6-fluoropyridin-2-yl)methyl)-N-(8-(4-hydroxy-3,3-dimethylbut-1-yn-1-yl)-1-methyl-2-oxo-2,3,4,5-tetrahydro-1H-benzo[b]azepin-3-yl)-1H-pyrazole-1-carboxamide] | – | 28.3 nM | 0.5 nM | 38.5 nM |

Further lines, with some results ahead:

| Kp,uu (unbound brain/plasma ratio) [3] | IC50 [4] | Compound | IC50 [1] | IC50 [2] |
| --- | --- | --- | --- | --- |
| 1.7 | 16.4 nM | Cc1cccc(Cc2cnn(C(=O)N[C@H]3COc4ccc(C#CC5CCOCC5)cc4N(C)C3=O)c2)n1 [I-104, (S)—N-(5-Methyl-4-oxo-7-((tetrahydro-2H-pyran-4-yl)ethynyl)-2,3,4,5-tetrahydrobenzo[b][1,4]oxazepin-3-yl)-4-((6-methylpyridin-2-yl)methyl)-1H-pyrazole-1-carboxamide] | 7.3 nM | 190 nM |
| – | 19.5 nM | CN1C(=O)[C@@H](NC(=O)c2cc(Oc3cccnc3)ccn2)COc2ccc(C#CC3CCOCC3)cc21 [I-63, (S)—N-(5-methyl-4-oxo-7-((tetrahydro-2H-pyran-4-yl)ethynyl)-2,3,4,5-tetrahydrobenzo[b][1,4]oxazepin-3-yl)-4-(pyridin-3-yloxy)picolinamide] | 0.7 nM | 60 nM |
| – | 11.9 nM | CN1C(=O)[C@@H](NC(=O)c2cc(Cc3cocn3)ccn2)COc2ccc(C#CC(C)(C)O)cc21 [I-137, (S)—N-(7-(3-hydroxy-3-methylbut-1-yn-1-yl)-5-methyl-4-oxo-2,3,4,5-tetrahydrobenzo[b][1,4]oxazepin-3-yl)-4-(oxazol-4-ylmethyl)picolinamide] | 25.5 nM | 87.4 nM |
